Measurements taken from ChEMBL document CHEMBL3769303, “Discovery of membrane active benzimidazole quinolones-based topoisomerase inhibitors as potential DNA-binding antimicrobial agents” (Eur J Med Chem, 2016).
≈ marks a conversion by molar mass, not a printed value. Calls of active or inactive are those of the source. The calls are words filed in the database; no cut-off is given here.

Tests used:
[1] = system: Shigella dysenteriae; experiment: Antibacterial activity against Shigella dysenteriae by micro broth dilution method; type: functional
[2] = system: Staphylococcus aureus; experiment: Antibacterial activity against methicillin-resistant Staphylococcus aureus N315 by micro broth dilution method; type: functional
[3] = system: Staphylococcus aureus; experiment: Antibacterial activity against Staphylococcus aureus ATCC 25923 by micro broth dilution method; type: functional
[4] = system: Micrococcus luteus; experiment: Antibacterial activity against Micrococcus luteus ATCC 4698 by micro broth dilution method; type: functional; settings: NCTC 2665
[5] = system: Bacillus spizizenii; experiment: Antibacterial activity against Bacillus subtilis ATCC 6633 by micro broth dilution method; type: functional
[6] = system: Escherichia coli; experiment: Antibacterial activity against Escherichia coli DH52 by micro broth dilution method; type: functional
[7] = system: Escherichia coli; experiment: Antibacterial activity against Escherichia coli JM109 by micro broth dilution method; type: functional
[8] = system: Pseudomonas aeruginosa; experiment: Antibacterial activity against Pseudomonas aeruginosa ATCC 27853 by micro broth dilution method; type: functional
[9] = Antibacterial activity against Bacillus proteus ATCC 13315 by micro broth dilution method; type: functional
[10] = system: Salmonella enterica; experiment: Antibacterial activity against Salmonella enterica ATCC 14028 by micro broth dilution method; type: functional
[11] = Antifungal activity against Candida mycoderma ATCC 9888 after 24 hrs by micro broth dilution method; type: functional; settings: Candida vini
[12] = system: Cyberlindnera jadinii; experiment: Antifungal activity against Candida utilis ATCC 9950 after 24 hrs by micro broth dilution method; type: functional; settings: Williopsis jadinii, ATCC 9950, 24 h
[13] = system: Aspergillus flavus; experiment: Antifungal activity against Aspergillus flavus ATCC 204304 after 24 hrs by micro broth dilution method; type: functional; settings: ATCC 204304, 24 h
[14] = system: Saccharomyces cerevisiae; experiment: Antifungal activity against Saccharomyces cerevisiae ATCC 9763 after 24 hrs by micro broth dilution method; type: functional; settings: ATCC 9763, 24 h
[15] = system: Candida albicans; experiment: Antifungal activity against Candida albicans ATCC 10231 after 24 hrs by micro broth dilution method; type: functional; settings: ATCC 10231, 24 h
[16] = system: Micrococcus luteus; experiment: Potency index, ratio of chloromycin MIC to compound MIC for Micrococcus luteus ATCC 4698; type: functional, NCTC 2665
[17] = system: Bacillus; experiment: Potency index, ratio of chloromycin MIC to compound MIC for Bacillus proteus ATCC 13315; type: functional
[18] = system: Salmonella enterica; experiment: Potency index, ratio of chloromycin MIC to compound MIC for Salmonella enterica ATCC 14028; type: functional
[19] = system: Micrococcus luteus; experiment: Potency index, ratio of ciprofloxacin MIC to compound MIC for Micrococcus luteus ATCC 4698; type: functional, NCTC 2665
[20] = system: Micrococcus luteus; experiment: Potency index, ratio of clinafloxacin MIC to compound MIC for Micrococcus luteus ATCC 4698; type: functional, NCTC 2665
[21] = system: Bacillus; experiment: Potency index, ratio of clinafloxacin MIC to compound MIC for Bacillus proteus ATCC 13315; type: functional
[22] = system: Salmonella enterica; experiment: Potency index, ratio of clinafloxacin MIC to compound MIC for Salmonella enterica ATCC 14028; type: functional
[23] = system: Staphylococcus aureus; experiment: Bactericidal activity against methicillin-resistant Staphylococcus aureus N315 assessed as reduction in log10 CFU count at 6 times MIC after 24 hrs by time kill assay; type: functional
[24] = system: Staphylococcus aureus; experiment: Antibiofilm activity against methicillin-resistant Staphylococcus aureus N315 after 24 hrs by crystal violet staining-based plate reader assay; type: functional, organism-based; settings: N315, 24 h
[25] = system: Escherichia coli; experiment: Antibiofilm activity against Escherichia coli DH52 after 24 hrs by crystal violet staining-based plate reader assay; type: functional, organism-based; settings: DH52, 24 h
[26] = system: Staphylococcus aureus; experiment: Antibiofilm activity against methicillin-resistant Staphylococcus aureus N315 assessed as log10 CFU count at 0.125 ug/ml after 24 hrs (reference value: 13.6 log10 CFU/ml); type: functional
[27] = system: Staphylococcus aureus; experiment: Antibiofilm activity against methicillin-resistant Staphylococcus aureus N315 assessed as log10 CFU count at 0.25 ug/ml after 24 hrs (reference value: 13.6 log10 CFU/ml); type: functional
[28] = system: Staphylococcus aureus; experiment: Antibiofilm activity against methicillin-resistant Staphylococcus aureus N315 assessed as log10 CFU count at 1 ug/ml after 24 hrs (reference value: 13.6 log10 CFU/ml); type: functional
[29] = system: Staphylococcus aureus; experiment: Antibiofilm activity against methicillin-resistant Staphylococcus aureus N315 assessed as log10 CFU count at 2 ug/ml after 24 hrs (reference value: 13.6 log10 CFU/ml); type: functional
[30] = system: Staphylococcus aureus; experiment: Antibiofilm activity against methicillin-resistant Staphylococcus aureus N315 assessed as reduction in log10 CFU count after 24 hrs; type: functional, organism-based; settings: N315, 24 h
[31] = system: Escherichia coli; experiment: Antibiofilm activity against Escherichia coli DH52 assessed as log10 CFU count at 0.5 ug/ml after 24 hrs (reference value: 16.2 log10CFU/ml); type: functional
[32] = system: Escherichia coli; experiment: Antibiofilm activity against Escherichia coli DH52 assessed as log10 CFU count at 0.25 ug/ml after 24 hrs (reference value: 16.2 log10CFU/ml); type: functional
[33] = system: Escherichia coli; experiment: Antibiofilm activity against Escherichia coli DH52 assessed as log10 CFU count at 2 ug/ml after 24 hrs (reference value: 16.2 log10CFU/ml); type: functional
[34] = system: Escherichia coli; experiment: Antibiofilm activity against Escherichia coli DH52 assessed as log10 CFU count at 4 ug/ml after 24 hrs (reference value: 16.2 log10CFU/ml); type: functional
[35] = system: Escherichia coli; experiment: Antibiofilm activity against Escherichia coli DH52 assessed as reduction in log10 CFU count after 48 hrs; type: functional, organism-based; settings: DH52, 48 h
[36] = system: Staphylococcus aureus; experiment: Antibacterial activity against methicillin-resistant Staphylococcus aureus N315 assessed as membrane permeabilization at 12 times MIC measured for 15 mins by propidium iodide staining-based method; type: functional, organism-based
[37] = system: Escherichia coli; experiment: Antibacterial activity against Escherichia coli DH52 assessed as membrane permeabilization at 12 times MIC measured for 15 mins by propidium iodide staining-based method; type: functional, organism-based
[38] = system: Staphylococcus aureus; experiment: Antibacterial activity against methicillin-resistant Staphylococcus aureus N315 measured after 12 passages; type: functional
[39] = system: Escherichia coli; experiment: Inhibition of Escherichia coli topoisomerase 4 assessed as DNA relaxation using PUC19T-DNA at 10 uM after 2 hrs by ehtidium bromide staining-based agarose gel electrophoresis
[40] = system: HEK293; experiment: Cytotoxicity against HEK293 cells after 24 hrs by CCK8 assay; type: cell-based; settings: Homo sapiens, HEK293, 24 h
[41] = system: Calf thymus DNA; experiment: Binding affinity to calf thymus DNA by UV-visible spectroscopy; type: nucleic-acid assay; settings: Bos taurus
[42] = system: Micrococcus luteus; experiment: Potency index, ratio of norfloxacin MIC to compound MIC for Micrococcus luteus ATCC 4698; type: functional, NCTC 2665
[43] = system: Salmonella enterica; experiment: Potency index, ratio of norfloxacin MIC to compound MIC for Salmonella enterica ATCC 14028; type: functional

**Q.** Which results are given for `O=C(O)c1cn(C2CC2)c2cc(N3CCN(Cc4nc5ccccc5n4Cc4ccc(F)cc4)CC3)c(F)cc2c1=O`?
**A.** MIC [1]: 16 µg/mL (≈ 28.1 µM); MIC [2]: 4 µg/mL (≈ 7.02 µM); MIC [3]: 16 µg/mL (≈ 28.1 µM); MIC [4]: 16 µg/mL (≈ 28.1 µM); MIC [5]: 8 µg/mL (≈ 14 µM); MIC [6]: 32 µg/mL (≈ 56.2 µM); MIC [7]: 16 µg/mL (≈ 28.1 µM); MIC [8]: 8 µg/mL (≈ 14 µM); MIC [9]: 16 µg/mL (≈ 28.1 µM); MIC [10]: 16 µg/mL (≈ 28.1 µM); MIC80 [11]: 16 µg/mL (≈ 28.1 µM); MIC80 [12]: 8 µg/mL (≈ 14 µM); MIC80 [13]: 8 µg/mL (≈ 14 µM); MIC80 [14]: 16 µg/mL (≈ 28.1 µM); MIC80 [15]: 8 µg/mL (≈ 14 µM)

**Q.** For `CCCCCCCCCCn1c(CN2CCN(c3cc4c(cc3F)c(=O)c(C(=O)O)cn4C3CC3)CC2)nc2ccccc21`, which MIC [1] is on record?
**A.** 64 µg/mL (≈ 106 µM)

**Q.** What about the MIC [2] of the same compound?
**A.** 64 µg/mL (≈ 106 µM)

**Q.** What about the MIC [3] of the same compound?
**A.** 64 µg/mL (≈ 106 µM)

**Q.** And the MIC [4]?
**A.** 128 µg/mL (≈ 213 µM)

**Q.** And the MIC [5]?
**A.** 64 µg/mL (≈ 106 µM)

**Q.** And the MIC [6]?
**A.** 128 µg/mL (≈ 213 µM)

**Q.** What about the MIC [7] of the same compound?
**A.** 128 µg/mL (≈ 213 µM)

**Q.** What about the MIC [8] of the same compound?
**A.** 32 µg/mL (≈ 53.2 µM)

**Q.** What about the MIC [9] of the same compound?
**A.** 32 µg/mL (≈ 53.2 µM)

**Q.** And the MIC [10]?
**A.** 32 µg/mL (≈ 53.2 µM)

**Q.** What about the MIC80 [11] of the same compound?
**A.** 64 µg/mL (≈ 106 µM)

**Q.** What about the MIC80 [12] of the same compound?
**A.** 64 µg/mL (≈ 106 µM)

**Q.** What about the MIC80 [13] of the same compound?
**A.** 16 µg/mL (≈ 26.6 µM)

**Q.** And the MIC80 [14]?
**A.** 16 µg/mL (≈ 26.6 µM)

**Q.** What about the MIC80 [15] of the same compound?
**A.** 64 µg/mL (≈ 106 µM)

**Q.** Which MIC [1] does the source give for `O=C(O)c1cn(C2CC2)c2cc(N3CCN(Cc4nc5ccccc5n4Cc4ccc(Cl)cc4Cl)CC3)c(F)cc2c1=O` here?
**A.** 1 µg/mL (≈ 1.61 µM)

**Q.** And the MIC [2]?
**A.** 0.125 µg/mL (≈ 0.201 µM)

**Q.** And the MIC [3]?
**A.** 8 µg/mL (≈ 12.9 µM)

**Q.** What about the MIC [4] of the same compound?
**A.** 0.0625 µg/mL (≈ 0.101 µM)

**Q.** And the MIC [5]?
**A.** 4 µg/mL (≈ 6.45 µM)

**Q.** What about the MIC [6] of the same compound?
**A.** 0.125 µg/mL (≈ 0.201 µM)

**Q.** And the MIC [7]?
**A.** 1 µg/mL (≈ 1.61 µM)

**Q.** And the MIC [8]?
**A.** 0.5 µg/mL (≈ 0.806 µM)

**Q.** And the MIC [9]?
**A.** 0.0312 µg/mL (≈ 0.0503 µM)

**Q.** And the MIC [10]?
**A.** 0.0312 µg/mL (≈ 0.0503 µM)

**Q.** And the Ratio [16]?
**A.** 128

**Q.** And the Ratio [17]?
**A.** 1025

**Q.** What about the Ratio [18] of the same compound?
**A.** 1025

**Q.** What about the Ratio [19] of the same compound?
**A.** 32

**Q.** And the Ratio [20]?
**A.** 8

**Q.** And the Ratio [21]?
**A.** 16

**Q.** And the Ratio [22]?
**A.** 8

**Q.** And the MIC80 [11]?
**A.** 0.25 µg/mL (≈ 0.403 µM)

**Q.** And the Activity [23]?
**A.** 3 log10CFU/ml

**Q.** And the IC50 [24]?
**A.** 0.125 µg/mL (≈ 0.201 µM)

**Q.** What about the IC50 [25] of the same compound?
**A.** 0.25 µg/mL (≈ 0.403 µM)

**Q.** And the Activity [26]?
**A.** 10.5 log10CFU/ml

**Q.** What about the Activity [27] of the same compound?
**A.** 9.6 log10CFU/ml

**Q.** And the Activity [28]?
**A.** 5 log10CFU/ml

**Q.** And the Activity [29]?
**A.** 0.1 log10CFU/ml

**Q.** What about the EC50 [30] of the same compound?
**A.** 0.76 µg/mL (≈ 1.22 µM)

**Q.** What about the Activity [31] of the same compound?
**A.** 10.1 log10CFU/ml

**Q.** And the Activity [32]?
**A.** 12.2 log10CFU/ml

**Q.** And the Activity [33]?
**A.** 7.2 log10CFU/ml

**Q.** What about the Activity [34] of the same compound?
**A.** 3.6 log10CFU/ml

**Q.** What about the EC50 [35] of the same compound?
**A.** 1.5 µg/mL (≈ 2.42 µM)

**Q.** And the Activity [36]?
**A.** Active

**Q.** And the Activity [37]?
**A.** Active

**Q.** What about the MIC [38] of the same compound?
**A.** 0.125 µg/mL (≈ 0.201 µM)

**Q.** What about the inhibition [39] of the same compound?
**A.** Active

**Q.** And the IC50 [40]?
**A.** 106 µg/mL (≈ 171 µM)

**Q.** And the K [41]?
**A.** 4.3 ×10⁴ L/mol

**Q.** What about the MIC80 [12] of the same compound?
**A.** 0.125 µg/mL (≈ 0.201 µM)

**Q.** And the MIC80 [13]?
**A.** 0.5 µg/mL (≈ 0.806 µM)

**Q.** And the MIC80 [14]?
**A.** 1 µg/mL (≈ 1.61 µM)

**Q.** And the MIC80 [15]?
**A.** 0.5 µg/mL (≈ 0.806 µM)

**Q.** What about the Ratio [42] of the same compound?
**A.** 32

**Q.** And the Ratio [43]?
**A.** 32
